Patent publication US6743789B2, “Substituted imidazo[1,5-a][1,2,4]triazolo[4,3-d][1,4]benzodiazepine derivatives” (Hoffmann-La Roche Inc., priority 2000, dated 2004)
pKi: −log10 of the molar value. Counter-ions that a name gives are not always drawn. Like-named read-outs stand apart in the source and are kept apart here.

How the values were obtained:
[1] = molecular target: T1, rat GABA A receptor α1β3γ2 (Rattus norvegicus, UniProt P18508+P62813); assay: [3H]flumazenil competition binding, GABA A α1β3γ2; details: for Ki: [3H]flumazenil 1 nM, SF9 cells expressing rat α1β3γ2, mean of two determinations, read-out: Ki[nM] ra1
T1 construct: expressed in transfected cells; host or cells: SF9 insect cells
Method: (§1) The affinity of compounds at GABA A receptor subtypes was measured by competition for [^3H]flumazenil (85 Ci/mmol; Amersham) binding to SF9 cells expressing rat receptors of composition α1β3γ2, α2β3γ2, α3β3γ2 and α5β3γ2.
(§2) Cellpellets were suspended in Krebs-tris buffer (4.8 mM KCl, 1.2 mM CaCl2, 1.2 mM MgCl2, 120 mM NaCl, 15 mM Tris; pH 7.5; binding assay buffer), homogenized by polytron for ca. 15 sec on ice and centrifuged in UZ for 30 min at 4° C. (100000 g; rotor: TFT 4594=300000 rpm). The cellpellets were resuspended in Krebs-tris buffer and homogenized by polytron for ca. 15 sec on ice. Aliquots of 1 ml were prepared, protein was measured (Bradford method) and the resulting membrane aliquots were stored at −70° C.
(§3) Radioligand binding assays were carried out in a volume of 200 μL (96-well plates) which contained 100 μL of cells, [^3H]flumazenil at a concentration of 1 nM for α1α2α3 subunits and 0.5 nM for α5 subunits and the test compound in the range of
(§4) 10^−10−3×10^−6 M. Nonspecific binding was defined by 10^−5 M diazepam and typically represented less than 5% of the total binding. Assays were incubated to equilibrium for 1 hour at 4° C. and harvested onto GF/C uni-filters (Packard) by filtration using a Packard harvester and washing with ice-cold wash buffer (50 mM Tris; pH 7.5). After drying, filter-retained radioactivity was detected by liquid scintillation counting. Ki values were calculated using Excel-Fit (Microsoft) and are the means of two determinations.

[2] = molecular target: T2, rat GABA A receptor α5β3γ2 (Rattus norvegicus, UniProt P18508+P19969); assay: [3H]flumazenil competition binding, GABA A α5β3γ2; details: for Ki: [3H]flumazenil 0.5 nM, SF9 cells expressing rat α5β3γ2, mean of two determinations, read-out: Ki[nM] ra5
T2 construct: expressed in transfected cells; host or cells: SF9 insect cells
Method: as §1, §2, §3, §4

[3] = molecular target: T3, rat GABA A receptor α3β3γ2 (Rattus norvegicus, UniProt P18508+P20236); assay: [3H]flumazenil competition binding, GABA A α3β3γ2; details: for Ki: [3H]flumazenil 1 nM, SF9 cells expressing rat α3β3γ2, mean of two determinations, read-out: Ki[nM] ra3
T3 construct: expressed in transfected cells; host or cells: SF9 insect cells
Method: as §1, §2, §3, §4

[4] = molecular target: T4, rat GABA A receptor α2β3γ2 (Rattus norvegicus, UniProt P18508+P23576); assay: [3H]flumazenil competition binding, GABA A α2β3γ2; details: for Ki: [3H]flumazenil 1 nM, SF9 cells expressing rat α2β3γ2, mean of two determinations, read-out: Ki[nM] ra2
T4 construct: expressed in transfected cells; host or cells: SF9 insect cells
Method: as §1, §2, §3, §4

[5] = in vivo; cited from earlier work
[6] = McNamara and Skelton, Psychobiology 21:101-108; cited from earlier work

Molecule	melting point	Ki [1]	pKi [2]	Ki [3]	Ki [4]	pKi [1]	Ki [2]	pKi [3]	pKi [4]	proconvulsant or convulsant activity [5]	spatial learning in the Morris watermaze [6]
CCOC(=O)c1ncn2c1Cn1c(Cc3ccncc3)nnc1-c1cc(Cl)ccc1-2 (as salt: hydrochloride) [Example 69, Ethyl 3-chloro-7-(pyridin-4-ylmethyl)-9H-imidazo[1,5-a][1,2,4]triazolo[4,3-d][1,4]-benzodiazepine-10-carboxylate]	213 °C	–	–	–	–	–	–	–	–	–	–
CCOC(=O)c1ncn2c1Cn1c(Cc3ccncc3)nnc1-c1cc(Cl)ccc1-2 [Example 69, Ethyl 3-chloro-7-(pyridin-4-ylmethyl)-9H-imidazo[1,5-a][1,2,4]triazolo[4,3-d][1,4]-benzodiazepine-10-carboxylate]	–	360 nM	8.15	158 nM	308 nM	–	–	–	–	–	–
Clc1ccc2c(c1)-c1nnc(Cc3ccccc3)n1Cc1c(-c3noc(C4CC4)n3)ncn1-2 [Example 63, 7-Benzyl-3-chloro-10-(5-cyclopropyl-1,2,4-oxadiazol-3-yl)-9H-imidazo[1,5-a][1,2,4]triazolo[4,3-d][1,4]benzodiazepine]	–	–	–	–	–	7.90	0.6 nM	8.25	7.97	–	–
3-Chloro-10-(5-cyclopropyl-1,2,4-oxadiazol-3-yl)-7-(1H-indol-3-ylmethyl)-9H-imidazo[1,5-a][1,2,4]triazolo[4,3-d][1,4]benzodiazepine [Example 61]	–	67.3 nM	–	18.9 nM	53 nM	–	1.3 nM	–	–	–	–
CCOC(=O)c1ncn2c1Cn1c(C)nnc1-c1cc(OC)ccc1-2 [Example 19, Ethyl 3-methoxy-7-methyl-9H-imidazo[1,5-a][1,2,4]triazolo[4,3-d][1,4]-benzodiazepine-10-carboxylate]	210 °C	–	–	–	–	6.32	14.5 nM	6.32	6.30	–	–
CCOC(=O)c1ncn2c1Cn1c(Cc3cccc(OC)c3)nnc1-c1cc(Br)ccc1-2 [Example 50, Ethyl 3-bromo-7-(3-methoxy-benzyl)-9H-imidazo[1,5-a][1,2,4]triazolo[4,3-d][1,4]-benzodiazepine-10-carboxylate]	111 to 113 °C	1000 nM	7.84	220 nM	409 nM	–	–	–	–	–	–
CCOC(=O)c1ncn2c1Cn1cnnc1-c1cc(OC)ccc1-2 [Example 1, Ethyl 3-methoxy-9H-imidazo[1,5-a][1,2,4]triazolo[4,3-d][1,4]-benzodiazepine-10-carboxylate]	197 °C	–	–	–	–	7.51	1.3 nM	7.41	7.24	–	–
COC(=O)c1cc2c(cn1)[nH]c1ccccc12 [β-CCM]	–	–	–	–	–	–	–	–	–	proconvulsant or convulsant	enhance spatial learning
CCOC(=O)c1ncn2c1Cn1c(Cc3c[nH]c4c(OC)cccc34)nnc1-c1cc(OC)ccc1-2 [Example 37, Ethyl 3-methoxy-7-[(7-methoxy-1H-indol-3-yl)methyl]-9H-imidazo[1,5-a][1,2,4]triazolo[4,3-d][1,4]-benzodiazepine-10-carboxylate]	–	296 nM	–	162 nM	266 nM	–	8.2 nM	–	–	–	–
Cc1ccc2c(c1)-c1nncn1Cc1c(-c3nc(C4CC4)no3)ncn1-2 [Example 6, 10-(3-Cyclopropyl-1,2,4-oxadiazol-5-yl)-3-methyl-9H-imidazo[1,5-a][1,2,4]triazolo[4,3-d][1,4]benzodiazepine]	253 to 256 °C	408 nM	7.97	149 nM	362 nM	–	–	–	–	–	–
CCOC(=O)c1ncn2c1Cn1c(CO)nnc1-c1cc(OC)ccc1-2 [Example 25, Ethyl 7-hydroxymethyl-3-methoxy-9H-imidazo[1,5-a][1,2,4]triazolo[4,3-d][1,4]-benzodiazepine-10-carboxylate]	255 °C	–	8.23	107 nM	123 nM	7.02	–	–	–	–	–
CCOC(=O)c1ncn2c1Cn1cnnc1-c1cc(Cl)ccc1-2 [Example 13, Ethyl 3-chloro-9H-imidazo[1,5-a][1,2,4]triazolo[4,3-d][1,4]benzodiazepine-10-carboxylate]	226 to 227 °C	–	–	–	–	7.46	1.2 nM	7.63	7.26	–	–
CCOC(=O)c1ncn2c1Cn1c(Cc3c[nH]c4ccccc34)nnc1-c1cc(Br)ccc1-2 [Example 47, Ethyl 3-bromo-7-(1H-indol-3-ylmethyl)-9H-imidazo[1,5-a][1,2,4]triazolo[4,3-d][1,4]-benzodiazepine-10-carboxylate]	258 °C (dec.)	694 nM	7.88	100 nM	225 nM	–	–	–	–	–	–
Ethyl 3-methoxy-7-(1H-indol-3-ylmethyl)-9H-imidazo[1,5-a][1,2,4]triazolo[4,3-d][1,4]-benzodiazepine-10-carboxylate [Example 20]	–	803 nM	–	191 nM	284 nM	–	10.7 nM	–	–	–	–
CCOC(=O)c1ncn2c1Cn1c(Cc3ccc(-c4ccccc4)cc3)nnc1-c1cc(OC)ccc1-2 [Example 54, Ethyl 3-methoxy-7-[(biphenyl-4-yl)methyl]-9H-imidazo[1,5-a][1,2,4]triazolo[4,3-d][1,4]-benzodiazepine-10-carboxylate]	–	–	7.89	108 nM	148 nM	7.19	–	–	–	–	–
